# Measured values as given in PubChem BioAssay AID588401 (Johns Hopkins Ion Channel Center, 2011).
# Activity calls are given as the source filed them.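 How the source made its calls: active means blocks the choline transporter at some tested dose and yields a fitted dose response curve; inconclusive means no clear call, values can overlap the other calls; inactive means no blocking at any dose or no curve.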
# Target: High affinity choline transporter 1 (Homo sapiens) (UniProt Q9GZV3)
# Assay: human choline transporter blockers, potency – cell-based, 10-point CRC, membrane potential dye, dose response (AID 588401)
# Conditions: HEK293-CHT, choline-induced depolarization, at 25 µM (top of the series), cells express LV-AA mutant CHT
# Chain of High affinity choline transporter 1 (Homo sapiens) (Q9GZV3 whole entry, looked up): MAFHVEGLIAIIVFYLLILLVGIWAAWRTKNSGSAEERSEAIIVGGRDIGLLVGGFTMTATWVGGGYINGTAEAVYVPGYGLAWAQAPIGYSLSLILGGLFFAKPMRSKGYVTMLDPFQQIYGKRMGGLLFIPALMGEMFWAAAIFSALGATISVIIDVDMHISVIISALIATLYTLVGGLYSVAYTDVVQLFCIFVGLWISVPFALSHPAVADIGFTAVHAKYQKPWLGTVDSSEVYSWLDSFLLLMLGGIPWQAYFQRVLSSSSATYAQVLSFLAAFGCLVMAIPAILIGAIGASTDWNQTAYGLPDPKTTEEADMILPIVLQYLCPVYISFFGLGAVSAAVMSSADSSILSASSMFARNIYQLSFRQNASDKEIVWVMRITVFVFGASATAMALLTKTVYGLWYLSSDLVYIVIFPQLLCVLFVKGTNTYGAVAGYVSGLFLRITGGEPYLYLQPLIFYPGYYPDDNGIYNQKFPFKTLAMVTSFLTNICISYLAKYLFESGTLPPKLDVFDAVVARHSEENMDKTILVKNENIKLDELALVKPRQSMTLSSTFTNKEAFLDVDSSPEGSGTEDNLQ
row,SMILES,inhibition (negative values = inhibition)
1,CC1(C)CC2CC(C)(CN2c2ncnc3ccccc23)C1 (configuration not stated),inactive
2,CCOC(=O)c1c(NC(=O)C2C3C=CC(C3)C2C(=O)O)sc2c1CCC(CC)C2 (configuration not stated),inactive
3,COc1ccc(-c2csc(Cc3nnc4n3CCCCC4)n2)cc1,inactive
4,CCOC(=O)c1nc(NNC(=O)c2ccc([N+](=O)[O-])cc2)sc1C,inactive
5,N#CC(C#N)=C(Nc1ccc(F)cc1)SCc1cccc(F)c1,inactive
6,Cc1cccc(C(=O)NNC(=S)NC(=O)c2ccccc2)c1,inactive
7,CCCOc1ccc(C(CC(=O)O)NC(=O)c2sc3ccccc3c2Cl)cc1 (configuration not stated),inactive
8,CCOc1ccc(/C=C2\SC(=S)N(NS(=O)(=O)c3ccccc3)C2=O)cc1OC,inactive
9,Cc1cc(OC(C)C(=O)Nc2ccc(S(=O)(=O)Nc3onc(C)c3C)cc2)cc(C)c1Cl (configuration not stated),inactive
10,COc1ccc(C/C(O)=C(\C#N)c2nc3ccccc3s2)cc1,inactive
11,CCN1CCn2c3c(c4cc(Cl)ccc42)CCCC31 (configuration not stated),inactive
12,CCN1CCN(CCNC(=O)c2ccc3nc(-c4cccc(C)c4)c(-c4cccc(C)c4)nc3c2)CC1,inactive
13,Cn1c(-c2sc3ccccc3c2Cl)n[nH]c1=S,inactive
14,Cc1ccc(C(=O)NC2CCCC(C)C2C)cc1S(=O)(=O)N1CCCCC1 (configuration not stated),inactive
15,c1ccc(CN2CCN(c3nc4ccccc4n4cnnc34)CC2)cc1,inactive
16,CCOC(=O)c1cccc(NC(=O)CSc2nnc(C)n2Cc2ccccc2)c1,inactive

row,SMILES,inhibition (negative values = inhibition)
1,C=CCSc1nc2ccccc2n1Cc1nnc(-c2cccs2)o1,inactive
2,Cc1ccccc1CCNCc1cc2cccc(C)c2[nH]c1=O,inactive
3,CC1CCCCC1NC(=S)Nc1ccc(SC(F)F)cc1 (configuration not stated),inactive
4,CCOC(=O)N1CCC(NC(=O)C2CCCN(Cc3nc(-c4cccc(Cl)c4)oc3C)C2)CC1 (configuration not stated),inactive
5,O=S(=O)(c1ccc(N2CCCC2)nc1)N1CCCC1,inactive
6,CCN(CC(=O)Nc1cccc(OC)c1)c1ncnc2sc(C)c(C)c12,inactive
7,Oc1ccc(C[C@H]2NCCc3cc(O)c(O)cc32)cc1O,inactive
8,Cc1cc(-c2ccccc2)n(-c2ccc(C(=O)N3CCN(c4ncccn4)CC3)cc2)n1,inactive
9,O=[N+]([O-])c1ccc(S(=O)(=O)Nc2nc(-c3ccccc3)cs2)cc1,inactive
10,C=C(C)CSc1nnc(CCCCCNC(=O)OC(C)(C)C)o1,inactive
11,CCCc1ccc(OCc2ccc(C(=O)NCc3cccnc3)o2)c(OC)c1,inactive
12,CC(C)(C)S(=O)(=O)/C(C#N)=N/Nc1ccc(Cl)cc1,inactive
13,COc1ccc(-n2c(=S)[nH]c3cc(C(=O)NCCCN4CCOCC4)ccc3c2=O)cc1,inactive
14,Cc1ccc(C)c(OCC(=O)Nc2ccc(S(=O)(=O)Nc3ccccn3)cc2)c1C,inactive
15,O=C(Nc1ccn(Cc2ccccc2)n1)c1n[nH]c([N+](=O)[O-])c1Cl,inactive
16,CC#CCN(CC#CC)S(=O)(=O)c1ccc(-n2cnnn2)c(OC)c1,inactive
